This note sets out measurements from patent US10081624B2, “Heterocyclic compound” (Takeda Pharmaceutical Company Limited, priority 2014, dated 2018).

In one experiment the target is T1, HDAC1 enzyme (Homo sapiens, UniProt Q13547).
T1 construct: prepared by transducing full length HDAC1 and HDAC6 genes into Sf-9 insect cells; GST; purchased SignalChem; host or cells: Sf-9 insect cells
Nature of the experiment: HDAC1 enzyme inhibitory assay (HDAC-Glo I/II Assay kit). The experiment is classed as biochemical. To be noted: 1 μM test compound; read-out: HDAC1 inhibitory rate (%) (1 μM). In outline:
(§1)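 Luminescence read-out: 20 min after adding HDAC-Glo substrate-developer at room temperature. Before that, compound and Sf-9-expressed, GST-purified full-length HDAC1 or HDAC6 sat together 60 min in pH 7.5 Tris buffer. Inhibition is relative to no-enzyme wells taken as 100%.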

In another experiment the target is T2, HDAC6 enzyme (Homo sapiens, UniProt Q9UBN7).
T2 construct: prepared by transducing full length HDAC1 and HDAC6 genes into Sf-9 insect cells; GST; purchased SignalChem; host or cells: Sf-9 insect cells
T2 sequence (Q9UBN7 1-1215): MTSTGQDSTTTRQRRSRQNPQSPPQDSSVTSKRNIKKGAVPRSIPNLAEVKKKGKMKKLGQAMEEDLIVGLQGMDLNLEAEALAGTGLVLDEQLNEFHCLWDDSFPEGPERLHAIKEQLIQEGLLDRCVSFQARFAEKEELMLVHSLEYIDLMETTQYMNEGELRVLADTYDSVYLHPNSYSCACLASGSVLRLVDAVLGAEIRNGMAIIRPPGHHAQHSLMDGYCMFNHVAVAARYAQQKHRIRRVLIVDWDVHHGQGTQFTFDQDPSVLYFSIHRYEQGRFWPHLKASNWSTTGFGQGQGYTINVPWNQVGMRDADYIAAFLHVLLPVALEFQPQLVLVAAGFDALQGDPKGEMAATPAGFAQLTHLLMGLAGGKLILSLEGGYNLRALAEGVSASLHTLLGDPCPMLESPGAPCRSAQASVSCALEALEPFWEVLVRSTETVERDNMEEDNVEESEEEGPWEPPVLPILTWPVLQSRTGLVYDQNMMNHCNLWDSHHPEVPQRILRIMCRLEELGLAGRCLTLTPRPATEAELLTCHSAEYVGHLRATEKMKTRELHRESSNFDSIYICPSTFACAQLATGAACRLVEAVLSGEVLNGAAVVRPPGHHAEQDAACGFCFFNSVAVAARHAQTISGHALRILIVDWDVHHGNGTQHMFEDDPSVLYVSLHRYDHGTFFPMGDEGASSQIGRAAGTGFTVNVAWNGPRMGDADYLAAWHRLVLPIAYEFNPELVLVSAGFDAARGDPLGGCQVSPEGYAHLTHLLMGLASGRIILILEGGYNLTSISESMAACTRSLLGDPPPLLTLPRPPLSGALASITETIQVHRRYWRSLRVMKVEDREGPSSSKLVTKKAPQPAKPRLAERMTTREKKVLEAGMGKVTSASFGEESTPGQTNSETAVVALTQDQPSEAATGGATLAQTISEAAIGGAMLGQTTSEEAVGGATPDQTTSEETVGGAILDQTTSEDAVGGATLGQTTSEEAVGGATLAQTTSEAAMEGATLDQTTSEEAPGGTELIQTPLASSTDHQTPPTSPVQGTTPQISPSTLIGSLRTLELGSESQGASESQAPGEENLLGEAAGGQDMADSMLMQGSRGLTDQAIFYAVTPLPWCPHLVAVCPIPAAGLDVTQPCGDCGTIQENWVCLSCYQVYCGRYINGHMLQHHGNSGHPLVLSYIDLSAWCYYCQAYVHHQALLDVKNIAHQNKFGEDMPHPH
Briefly: HDAC6 enzyme inhibitory assay (HDAC-Glo I/II Assay kit). The class given is biochemical. To be noted: 1 μM test compound; read-out: HDAC6 inhibitory rate (%) (1 μM). In outline: as §1

The structures appear in SMILES notation.

T1 sequence (Q13547 whole entry): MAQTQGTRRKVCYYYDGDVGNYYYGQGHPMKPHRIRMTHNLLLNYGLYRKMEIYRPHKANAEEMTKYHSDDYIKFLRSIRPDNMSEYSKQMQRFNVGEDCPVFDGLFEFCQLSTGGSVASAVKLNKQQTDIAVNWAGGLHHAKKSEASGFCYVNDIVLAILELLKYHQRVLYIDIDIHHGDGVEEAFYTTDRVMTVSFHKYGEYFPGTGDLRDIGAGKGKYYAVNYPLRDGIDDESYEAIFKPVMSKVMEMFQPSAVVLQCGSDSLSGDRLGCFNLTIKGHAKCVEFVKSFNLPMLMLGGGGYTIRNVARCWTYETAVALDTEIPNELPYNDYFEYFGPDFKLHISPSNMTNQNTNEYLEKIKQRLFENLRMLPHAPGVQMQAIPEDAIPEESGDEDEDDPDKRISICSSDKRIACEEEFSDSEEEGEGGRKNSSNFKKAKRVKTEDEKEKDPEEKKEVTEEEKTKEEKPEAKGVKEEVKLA

Regarding `Cn1nccc1C(=O)N1CCCC[C@@H]1CNC(=O)c1ccc(-c2noc(C(F)(F)F)n2)cc1` [Example 164, N-(((2R)-1-((1-methyl-1H-pyrazol-5-yl)carbonyl)piperidin-2-yl)methyl)-4-(5-(trifluoromethyl)-1,2,4-oxadiazol-3-yl)benzamide], the inhibition at 1 µM on HDAC1 enzyme was 17%; on HDAC6 enzyme, 98%.
In the case of `O=C(NCC1CN(C(=O)c2ccccc2)CCN1C(=O)c1ccccc1)c1ccc(-c2noc(C(F)(F)F)n2)cc1` (centres unmarked) [Example 165, N-((1,4-dibenzoylpiperazin-2-yl)methyl)-4-(5-(trifluoromethyl)-1,2,4-oxadiazol-3-yl)benzamide], the inhibition at 1 µM was 17% at HDAC1 enzyme and 99% on HDAC6 enzyme.
For `O=C(NCC1Cc2ccccc2N1C(=O)c1ccccc1)c1ccc(-c2noc(C(F)(F)F)n2)cc1` (centres unmarked) [Example 167, N-((1-benzoyl-2,3-dihydro-1H-indol-2-yl)methyl)-4-(5-(trifluoromethyl)-1,2,4-oxadiazol-3-yl)benzamide], in that order: 15% and 93%.
The corresponding values for `O=C(NCC1CCc2ccccc2N1C(=O)C1CC1)c1ccc(-c2noc(C(F)(F)F)n2)cc1` (centres unmarked) [Example 172, N-((1-(cyclopropylcarbonyl)-1,2,3,4-tetrahydroquinolin-2-yl)methyl)-4-(5-(trifluoromethyl)-1,2,4-oxadiazol-3-yl)benzamide] are 8% and 95%.
For `O=C(NCC1CCc2ccccc2N1C(=O)c1ccccc1)c1ccc(-c2noc(C(F)(F)F)n2)cc1` (centres unmarked) [Example 173, N-((1-benzoyl-1,2,3,4-tetrahydroquinolin-2-yl)methyl)-4-(5-(trifluoromethyl)-1,2,4-oxadiazol-3-yl)benzamide], the inhibition at 1 µM at HDAC1 enzyme is 16%; on HDAC6 enzyme, 90%.
Regarding `O=C(NCC1Cc2ccccc2CN1C(=O)c1ccccc1)c1ccc(-c2noc(C(F)(F)F)n2)cc1` (centres unmarked) [Example 175, N-((2-benzoyl-1,2,3,4-tetrahydroisoquinolin-3-yl)methyl)-4-(5-(trifluoromethyl)-1,2,4-oxadiazol-3-yl)benzamide], the inhibition at 1 µM is 18% at HDAC1 enzyme and 97% at HDAC6 enzyme.
With `O=C(NCC1COCCN1C(=O)c1ccccc1)c1ccc(-c2noc(C(F)(F)F)n2)cc1F` (centres unmarked) [Example 177, N-((4-benzoylmorpholin-3-yl)methyl)-2-fluoro-4-(5-(trifluoromethyl)-1,2,4-oxadiazol-3-yl)benzamide], the inhibition at 1 µM on HDAC1 enzyme was found to be 27%; at HDAC6 enzyme it was 99%.
For `Cc1cc(-c2noc(C(F)(F)F)n2)ccc1C(=O)NCC1COCCN1C(=O)c1ccccc1` (centres unmarked) [Example 178, N-((4-benzoylmorpholin-3-yl)methyl)-2-methyl-4-(5-(trifluoromethyl)-1,2,4-oxadiazol-3-yl)benzamide], in that order: 3% and 24%.
On to `Cc1cc(C(=O)NCC2COCCN2C(=O)c2ccccc2)ccc1-c1noc(C(F)(F)F)n1` (centres unmarked) [Example 179, N-((4-benzoylmorpholin-3-yl)methyl)-3-methyl-4-(5-(trifluoromethyl)-1,2,4-oxadiazol-3-yl)benzamide], for which the inhibition at 1 µM was -1% at HDAC1 enzyme and 36% on HDAC6 enzyme.
For `O=C(NCC1COCCN1C(=O)c1ccccc1)c1ccc(-c2noc(C(F)(F)F)n2)cn1` (centres unmarked) [Example 181, N-((4-benzoylmorpholin-3-yl)methyl)-5-(5-(trifluoromethyl)-1,2,4-oxadiazol-3-yl)pyridine-2-carboxamide], in that order: 29% and 97%.
The corresponding values for `O=C(NCC1COCCN1C(=O)c1cc(Cl)cc(Cl)c1)c1ccc(-c2noc(C(F)(F)F)n2)cn1` (centres unmarked) [Example 182, N-((4-(3,5-dichlorobenzoyl)morpholin-3-yl)methyl)-5-(5-(trifluoromethyl)-1,2,4-oxadiazol-3-yl)pyridine-2-carboxamide] are 42% and 97%.
For `O=C(NC[C@H]1COCCN1C(=O)c1cc(Cl)cc(Cl)c1)c1ccc(-c2noc(C(F)(F)F)n2)cn1` [Example 183, N-(((3S)-4-(3,5-dichlorobenzoyl)morpholin-3-yl)methyl)-5-(5-(trifluoromethyl)-1,2,4-oxadiazol-3-yl)pyridine-2-carboxamide], in that order: 57% and 97%.
As to `Cn1nc2ccccc2c1C(=O)N1CCOC[C@@H]1CNC(=O)c1ccc(-c2noc(C(F)(F)F)n2)cn1` [Example 184, N-(((3S)-4-((2-methyl-2H-indazol-3-yl)carbonyl)morpholin-3-yl)methyl)-5-(5-(trifluoromethyl)-1,2,4-oxadiazol-3-yl)pyridine-2-carboxamide], the inhibition at 1 µM on HDAC1 enzyme came to 77%; on HDAC6 enzyme, 99%.
For `Cc1oncc1C(=O)N1CCOC[C@@H]1CNC(=O)c1ccc(-c2noc(C(F)(F)F)n2)cn1` [Example 193, N-(((3S)-4-((5-methyl-1,2-oxazol-4-yl)carbonyl)morpholin-3-yl)methyl)-5-(5-(trifluoromethyl)-1,2,4-oxadiazol-3-yl)pyridine-2-carboxamide], in that order: 33% and 97%.
The corresponding values for `Cc1nonc1C(=O)N1CCOC[C@@H]1CNC(=O)c1ccc(-c2noc(C(F)(F)F)n2)cn1` [Example 194, N-(((3S)-4-((4-methyl-1,2,5-oxadiazol-3-yl)carbonyl)morpholin-3-yl)methyl)-5-(5-(trifluoromethyl)-1,2,4-oxadiazol-3-yl)pyridine-2-carboxamide] are 36% and 97%.
For `Cc1nnsc1C(=O)N1CCOC[C@@H]1CNC(=O)c1ccc(-c2noc(C(F)(F)F)n2)cn1` [Example 195, N-(((3S)-4-((4-methyl-1,2,3-thiadiazol-5-yl)carbonyl)morpholin-3-yl)methyl)-5-(5-(trifluoromethyl)-1,2,4-oxadiazol-3-yl)pyridine-2-carboxamide], in that order: 40% and 98%.
As to `O=C(NC[C@H]1COCCN1C(=O)C1(c2ccccc2)CC1)c1ccc(-c2noc(C(F)(F)F)n2)cn1` [Example 202, N-(((3S)-4-((1-phenylcyclopropyl)carbonyl)morpholin-3-yl)methyl)-5-(5-(trifluoromethyl)-1,2,4-oxadiazol-3-yl)pyridine-2-carboxamide], the results for the inhibition at 1 µM on HDAC1 enzyme and on HDAC6 enzyme were 20% and 98%, respectively.
The corresponding values for `O=C(NC[C@H]1COCCN1C(=O)C1CCCCC1)c1ccc(-c2noc(C(F)(F)F)n2)cn1` [Example 204, N-(((3S)-4-(cyclohexylcarbonyl)morpholin-3-yl)methyl)-5-(5-(trifluoromethyl)-1,2,4-oxadiazol-3-yl)pyridine-2-carboxamide] are 22% and 97%.
For the molecule `O=C(NC[C@H]1COCCN1C(=O)C1C2CC3CC(C2)CC1C3)c1ccc(-c2noc(C(F)(F)F)n2)cn1` (some centres unmarked) [Example 205, N-((4-(adamantan-2-ylcarbonyl)morpholin-3-yl)methy)-5-(5-(trifluoromethyl)-1,2,4-oxadiazol-3-yl)pyridine-2-carboxamide], the inhibition at 1 µM on HDAC1 enzyme was 59%; on HDAC6 enzyme, 99%.
